Measured values published in patent publication US9890315B2, “Use of polylysine as a shale inhibitor” (BASF SE, priority 2011, dated 2018).

How the values were obtained:
[1] = Performance test: Fann rheology and gel strength of bentonite suspension with shale inhibitor; conditions: 7.14 g/l Shale Inhibitor and 85.7 g/l Bentonite
Description: 350 ml of tap water are introduced into a beaker, 2.5 g of the shale inhibitor (calculated as dry mass—i.e. quaternized or non-quaternized polylysine or a prior art product) are added and the mixture is stirred for 20 min. The solution is transferred into an HB mixing cup. 30 g of Cebogel® NT (Bentonite, Cebo Holland B.V., The Netherlands) are added as a model substance for shale and the mixture is stirred at low speed for 10 min. Subsequently, the Fann rheology and the gel strength are determined.

[2] = OECD 306: Biodegradability in Seawater, Closed Bottle Method
Description: According to the method described in “OECD Guidelines for Testing of Chemicals—1992 OECD 306: Biodegradability in Seawater, Closed Bottle Method”, the biodegradability of the quaternized polylysine according to Example 3a, of Comp. sample 2 (Ultrahib®) and of a reference substance (sodium benzoate) was evaluated after 28 days and 60 days.

Row | SMILES | Fann 35 values 3 ([1]; tap water) [Pa] | Fann 35 values 6 ([1]; tap water) [Pa] | Fann 35 values 100 ([1]; tap water) [Pa] | Fann 35 values 200 ([1]; tap water) [Pa] | Fann 35 values 300 ([1]; tap water) [Pa] | Fann 35 values 600 ([1]; tap water) [Pa] | Gel strength 10′ ([1]; tap water) [Pa] | Gel strength 10″ ([1]; tap water) [Pa] | PV ([1]; tap water) [mPa*s] | YP ([1]; tap water) [Pa] | pH ([1]; pH of the test mixture) | biodegradability Day 28 ([2]; after 28 days) [%] | biodegradability Day 60 ([2]; after 60 days) [%]
1 | C[N+](C)(C)CCO.[Cl-] [Comp. 3, Cholinchlorid] | 4 | 4 | 5 | 6 | 6 | 8 | 3 | 3 | 3 | 5 | 9.1 | – | –
2 | O=C([O-])c1ccccc1.[Na+] [Reference, sodium benzoate] | – | – | – | – | – | – | – | – | – | – | – | 80 | 70
